The source of these data is ChEMBL document CHEMBL5104178, “Nitroimidazopyrazinones with Oral Activity against Tuberculosis and Chagas Disease in Mouse Models of Infection” (J Med Chem, 2022).

Data set [1] in a line: Toxicity in BALB/c mouse infected with Mycobacterium tuberculosis assessed as mortality at 12.5 to 50 mg/kg, po administered 5 days per week for 3 weeks starting from day 10 post infection. The data set is classed as organism-based. Conditions: in vivo, 504 h, dose 12.5-50 mg/kg.
Data set [2] can be described thus: Clearance in CD-1 mouse at 5 mg/kg, iv administered as DMSO/PEG400 formulation measured upto 24 hrs by LC-MS/MS analysis. Conditions: in vivo. The data set is classed as ADME, organism-based.
Data set [3] can be described thus: AUC(0 to 24 hrs) in CD-1 mouse at 20 mg/kg, po administered as DMSO/PEG400 formulation measured upto 24 hrs by LC-MS/MS analysis. The data set is classed as ADME, organism-based. Conditions: in vivo. Also on record: dose 20 mg/kg, time < 24 hrs, route po.
A short description of data set [4]: Metabolic stability in mouse microsomes assessed as compound remaining measured after 2 hrs. The data set is classed as ADME, Microsome. The conditions noted are these: read-out: Stability.
The subject of data set [5] is Mycobacterium tuberculosis. Kind of data set: Antimycobacterial activity against Mycobacterium tuberculosis infected in BALB/c mouse assessed as log reduction in bacterial load in lung by measuring colony forming unit at 12.5 to 50 mg/kg, po administered 5 days per week for 3 weeks starting from day 10 post infection (reference value: 8.8 x 10^3 CFU). It counts as functional. The conditions noted are these: dose 12.5-50 mg/kg.

The nature of data set [6]: Plasma protein binding in human. It counts as ADME, cell-free. The conditions noted are these: read-out: PPB (converted).
Data set [7] is described as follows: Tmax in CD-1 mouse at 20 mg/kg, po administered as DMSO/PEG400 formulation measured upto 24 hrs by LC-MS/MS analysis. The data set is classed as ADME, organism-based. Conditions: in vivo.
The nature of data set [8]: Metabolic stability in human microsomes assessed as compound remaining measured after 2 hrs. It counts as ADME, Microsome. The conditions noted are these: read-out: Stability.
The nature of data set [9]: Toxicity in BALB/c mouse infected with Mycobacterium tuberculosis assessed as body weight loss at 12.5 to 50 mg/kg, po administered 5 days per week for 3 weeks starting from day 10 post infection. Conditions: in vivo, 120 h, dose 12.5-50 mg/kg, time 5 day. It counts as organism-based.
For data set [10], the system named is Mycolicibacterium smegmatis. Kind of data set: Antimycobacterial activity against Mycobacterium smegmatis mc2155 ATCC 700084 assessed as bacterial growth inhibition incubated for 24 hrs under normoxic condition by resazurin microtiter assay. The data set is classed as functional. Background: Resazurin is reduced to fluorescent resorufin, in cell work by metabolically active cells.

The nature of data set [11]: Half life in CD-1 mouse at 5 mg/kg, iv administered as DMSO/PEG400 formulation measured upto 24 hrs by LC-MS/MS analysis. The data set is classed as ADME, organism-based. Conditions: in vivo.
In another data set the test system is Mycobacterium avium. Kind of data set: Antimycobacterial activity against Mycobacterium avium ATCC 25291 assessed as bacterial growth inhibition incubated for 6 days under normoxic condition by resazurin microtiter assay. It counts as functional. Conditions: ATCC 25291, 144 h, time 6 day.
The nature of data set [12]: Cytotoxicity against mouse 3T3 cells. The data set is classed as toxicity, cell-based. The conditions noted are these: NIH3T3 cells.
Data set [13] in a line: Solubility of compound in water by LC-UV analysis. Conditions: water; read-out: solubility. It counts as physicochemical.
The test system of data set [14] is Trypanosoma cruzi. Briefly: Antitrypanosomal activity against Trypanosoma cruzi Tulahuen amastigotes infected in mouse 3T3 cells assessed as inhibition of parasite growth incubated for 48 hrs by […] staining based analysis. It counts as functional, organism-based. Conditions: for IC90: NIH3T3, time 48 hrs.
A short description of data set [15]: Stability in human plasma assessed as compound remaining measured after 2 hrs. It counts as ADME, cell-free. Conditions: read-out: Stability.
The nature of data set [16]: Volume of distribution at steady state in CD-1 mouse at 5 mg/kg, iv administered as DMSO/PEG400 formulation measured upto 24 hrs by LC-MS/MS analysis. The data set is classed as ADME, organism-based. The conditions noted are these: in vivo, read-out: Vdss.
The nature of data set [17]: Solubility of compound in water at 0.1 M HCl at pH 1 by LC-UV analysis. The data set is classed as physicochemical. Conditions: 0.1 M HCl in water.
Data set [18] can be described thus: Cmax in CD-1 mouse at 20 mg/kg, po administered as DMSO/PEG400 formulation measured upto 24 hrs by LC-MS/MS analysis. Further details: dose 20 mg/kg, time < 24 hrs, route po. The data set is classed as ADME, organism-based. Conditions: in vivo.
Data set [19] can be described thus: Stability in mouse plasma assessed as compound remaining measured after 2 hrs. It counts as ADME, cell-free. The conditions noted are these: read-out: Stability.
For data set [20], the system named is Mycobacterium tuberculosis. Kind of data set: Antimycobacterial activity against Mycobacterium tuberculosis H37Ra ATCC 25177 assessed as bacterial growth inhibition incubated for 6 days under normoxic condition by resazurin microtiter assay. The conditions noted are these: H37Ra ATCC 25177, 144 h, time 6 day. The data set is classed as functional.
Data set [21] is described as follows: Half life in CD-1 mouse at 20 mg/kg, po administered as DMSO/PEG400 formulation measured upto 24 hrs by LC-MS/MS analysis. It counts as ADME, organism-based. The conditions noted are these: in vivo.
Data set [22] is described as follows: Oral bioavailability in CD-1 mouse at 20 mg/kg administered as DMSO/PEG400 formulation measured upto 24 hrs by LC-MS/MS analysis. Conditions: in vivo. It counts as ADME, organism-based.
Data set [23] can be described thus: Plasma protein binding in mouse. The data set is classed as ADME, cell-free. Conditions: read-out: PPB (converted).
The test system of data set [24] is Trypanosoma cruzi. Briefly: Antitrypanosomal activity against Trypanosoma cruzi Tulahuen amastigotes infected in mouse 3T3 cells assessed as reduction in parasite growth at Emax concentration incubated for 48 hrs by […] staining based analysis. It counts as functional. Further details: scale not given: the % may be the effect or the level left.
A short description of data set [25]: Solubility of compound in water at pH 7 by LC-UV analysis. The data set is classed as physicochemical.
Data set [26] relates to Trypanosoma cruzi. Kind of data set: Antitrypanosomal activity against bioluminescent Trypanosoma cruzi CL Brener trypomastigotes infected in BALB/c mouse assessed as reduction in parasite burden at 100 mg/kg, po administered once daily for 5 days starting from 14 days post infection and measured on 36 days post infection. Further details: scale not given: the % may be the effect or the level left. The data set is classed as functional. Conditions: time 22 day.

Data set [27] can be described thus: Selectivity index, ratio of CC50 for cytotoxicity against mouse 3T3 cells to IC50 for antitrypanosomal activity against Trypanosoma cruzi Tulahuen amastigotes infected in mouse 3T3 cells. The data set is classed as toxicity, cell-based. Conditions: read-out: Ratio CC50/IC50.
The test system of data set [28] is Trypanosoma cruzi. Briefly: Antitrypanosomal activity against bioluminescent Trypanosoma cruzi CL Brener trypomastigotes infected in BALB/c mouse assessed as reduction in parasite burden at 50 mg/kg, po administered twice daily for 5 days starting from 14 days post infection and measured on 36 days post infection. It counts as functional. The conditions noted are these: time 22 day. Also on record: scale not given: the % may be the effect or the level left.

Converted amounts (≈) assume the structure as drawn.

As for `O=c1c2nc([N+](=O)[O-])cn2ccn1Cc1ccc(OC(F)(F)F)cc1`, the values for the Activity result (in [1]; in data set [9]; in the data set with Trypanosoma cruzi [24]) were “Non-Toxic”, “Non-Toxic” and 100%, respectively. Further, in [2], the clearance was found to be 6.36 mL/min/kg. Besides, the AUC(0-t) at 24 h in data set [3] turned out to be 38900 ng·h/mL. Also, the remaining at 2 h in data set [4] was more than 99%; in [8] it was more than 99%; in [15], 98%; in data set [19] it was more than 99%. In addition, the “log(activity)” value in data set [5] was found to be 0.21. Besides, the fraction unbound in [6] and in data set [23] was less than 0.01 each time. In addition, the Tmax in data set [7] came out at 5.3 h. In addition, the MIC is more than 32 µg/mL in data set [10], more than 32 µg/mL with Mycobacterium avium and 0.031 µg/mL (≈ 0.0875 µM) in data set [20]. Also, the figures for the half-life in data set [11] and in data set [21] were 228 min and 288 min, respectively. Further, in [12], the CC50 is more than 73 µM. The solubility in data set [13], in data set [17] and in [25] was less than 1 µM in each case. For the same molecule, the IC90 with Trypanosoma cruzi [14] amounted to 0.72 µM. Moreover, in data set [16], the Vd amounted to 2.2 L/kg. For the same molecule, in data set [18], the Cmax is 3300 ng/mL. The molecule further yielded a bioavailability in data set [22] of 98%.

In turn, `O=C(Cn1ccnc1[N+](=O)[O-])NCc1ccccc1` [BENZNIDAZOLE] yielded a CC50 in [12] of more than 127 µM. For the same molecule, the IC50 in the data set on Trypanosoma cruzi [14] (NIH3T3, 48 h) is 7.6 µM. The IC90 in the data set on Trypanosoma cruzi [14] was determined as 28 µM. For the same molecule, the Activity with Trypanosoma cruzi [26] is 99.3%; with Trypanosoma cruzi [24], 100%. Also, the selectivity ratio in data set [27] was more than 17.

As for `O=c1c2nc([N+](=O)[O-])cn2ccn1Cc1ccc(-c2cccnc2)cc1`, the clearance in [2] came to 22.9 mL/min/kg. In data set [3], the AUC(0-t) at 24 h amounted to 9260 ng·h/mL. In data set [7], the Tmax was determined as 0.67 h. Moreover, in the data set with Trypanosoma cruzi [28], the Activity is given as 99.4%. Besides, the half-life was 90 min in data set [11] and 46.2 min in data set [21]. Besides, in [16], the Vd was 2.6 L/kg. For the same molecule, in [18], the Cmax turned out to be 4500 ng/mL. In data set [22], this molecule came in with a bioavailability of 92%.

The term clearance denotes the rate of elimination divided by the concentration. One may read the AUC(0-t) as exposure summed from dosing to a finite time, without extrapolation to infinity. A word on the Tmax: it is the time from dosing to the highest level. In general, MIC refers to the lowest concentration that inhibits growth of the organism. In general, half-life refers to the time in which the quantity being followed falls by half. As a reminder, the CC50 is the concentration at which the toxic effect on the cells reaches its halfway point. The solubility is how much of the substance goes into solution per volume. By IC90 is commonly meant the concentration needed for an effect of 90%. Broadly, the Cmax is the maximum level reached in the sampled fluid or tissue. As usually defined, the bioavailability is dose-corrected exposure relative to a reference, in per cent. The term IC50 denotes the concentration that inhibits the measured activity by half.
